These results are taken from patent publication US20240352053A1, “SALT AND CRYSTAL FORM OF EGFR INHIBITOR, AND COMPOSITION AND USE THEREOF” (BETTA PHARMACEUTICALS CO., LTD, priority 2021, published 2024).

Read-outs that look alike come from different tables or passages of the source.

Data set [1] can be described thus: Measurement of crystal form stability (HPLC chemical purity, XRPD). The settings on record: for Chemical purity (%) 0 days: HPLC. It counts as physicochemical. The procedure:
The X-ray powder diffraction pattern detection equipment and method of the present invention are as shown in the X-ray powder diffraction table in the instrument and analysis method. After the test compounds are placed under different temperature, humidity and light conditions for a period of time, the purity is tested. Purity testing method: Use high-performance liquid chromatography (HPLC) to detect the chemical purity of this product. Determine according to high performance liquid chromatography (“Chinese Pharmacopoeia” 2020 edition, Part IV, General Chapter 0512). […] XRPD characterization was performed on the samples after being placed under different temperature, humidity and light conditions for a period of time.

The nature of data set [2]: Pharmacokinetic test, oral administration in male SD rats. It counts as in vivo, rat. The settings on record: 50 mg/kg, distilled water, plasma. The method, then:
Male SD rats purchased from Beijing Weitonglihua Experimental Animal Technology Co Ltd. were used for oral administration PK studies. The dose was 50 mg/kg, the preparation was distilled water, and the compound concentrations corresponding to the test compounds were 5 mg/mL, ready for use. Oral administration is by oral gavage at 10 mL/kg. Blood was collected through the rat orbital venous plexus, and […] was taken at each time point into an EDTA anticoagulant tube. The blood collection time is: 15 min, 30 min, 1 h, 2 h, 4 h, 7 h, 24 h, 30 h, 48 h, centrifuge at 4000 rpm for 10 min, take the supernatant to obtain 100 μL plasma, and store it in a −80° C. refrigerator, spare. After precipitating the protein from the above plasma sample with acetonitrile, take the supernatant and mix it with water 1:1, and take 10 μL for LC-MS/MS detection.

The nature of data set [3]: DVS test (dynamic vapor sorption). It counts as physicochemical. The source says:
Take crystal form A of the compound represented by Formula III for DVS measurement, and the obtained DVS spectrum is shown in FIG. 5-2.

Data set [4] deals with Ba/F3-Δ19del/T790M/C797S cells. As to conditions: 72 hours, CTG; data recorded in PCT/CN2021/075994; read-out: Ba/F3/EGFR Δ19del/T790M/C797S IC50; cited from earlier work.
A further data set relates to Ba/F3 EGFR WT cells. As to conditions: 72 hours, CTG; data recorded in PCT/CN2021/075994; read-out: BaF3 EGFR WT IC50; cited from earlier work.
Data set [5] has as its system human epidermal cancer cell A431 carrying EGFR WT. The settings on record: 72 hours, CTG; data recorded in PCT/CN2021/075994; cited from earlier work.

Regarding `COc1cc(N2CCC(N3CCN(C)CC3)CC2)c(C)cc1Nc1ncc(Br)c(Nc2ccc3nc(C4CC4)ccc3c2P(C)(C)=O)n1.O=C(O)C[C@H](O)C(=O)O` [Crystal form J of the compound represented by formula III], the “Chemical purity (%) 0 days” value in data set [1] is listed as 99.59%. Further, in data set [1] (placement time 10 days), the “Chemical purity (%) 92.5% RH” value is 99.59% and the “Chemical purity (%) 4500 lx illumination” value stood at 96.05%.
`COc1cc(N2CCC(N3CCN(C)CC3)CC2)c(C)cc1Nc1ncc(Br)c(Nc2ccc3nc(C4CC4)ccc3c2P(C)(C)=O)n1.O=C(O)C[C@H](O)C(=O)O` [Crystal form A of the compound represented by formula III]: the “Chemical purity (%) 0 days” value in data set [1] is 98.85%. Besides, the “Chemical purity (%) 60° C.” value in data set [1] (60° C., placement time 13 days) is 98.80%. Moreover, in data set [1] (placement time 13 days), the “Chemical purity (%) 92.5% RH” value was found to be 98.98% and the “Chemical purity (%) 4500 lx illumination” value is 98.83%. Further, in data set [2], the AUClast was 47593 ng·h/mL and the peak concentration (Cmax) – broadly, the highest concentration seen after dosing – worked out at 2557 ng/mL. Also, the hygroscopic weight gain entry in data set [3] (25° C./80% RH) is given as “about 3.43%”. Further, in data set [3] (25° C./80% RH for 24 hours), the “sample weight after placement in DVS” value is given as “remained basically unchanged”. In addition, the “crystal form after placement in DVS” value in data set [3] (25° C./80% RH, after 24 hours) is given as “did not change”. Further, the “crystal form before and after the DVS test” value in data set [3] (DVS, 25° C.) was “does not change”.
For the compound `COc1cc(N2CCC(N3CCN(C)CC3)CC2)c(C)cc1Nc1ncc(Br)c(Nc2ccc3nc(C4CC4)ccc3c2P(C)(C)=O)n1.O=C(O)C[C@H](O)C(=O)O`, the exposure AUC(0-t) (in general, exposure summed from dosing to a finite time, without extrapolation to infinity) in data set [2] (male, SD, rat, po) was determined as 27400 ng·h/mL. The highest concentration (Cmax) in data set [2] (male, SD, rat, po, read-out: Cmax) is 1990 ng/mL.
Consider `COc1cc(N2CCC(N3CCN(C)CC3)CC2)c(C)cc1Nc1ncc(Br)c(Nc2ccc3nc(C4CC4)ccc3c2P(C)(C)=O)n1` [(6-((5-bromo-2-((2-methoxy-5-methyl-4-(4-(4-methylpiperazin-1-yl))piperidin-1-yl)phenyl)amino)pyrimidin-4-yl)amino)-2-cyclopropylquinolin-5-yl)dimethylphosphine oxide], for which the IC50 in data set [4] is 0.0068 µM; in the data set on Ba/F3 EGFR WT cells, 0.151 µM; in data set [5], 1.13 µM.
As for `CCc1cc(Nc2ncc(Br)c(Nc3ccc4ncccc4c3P(C)(C)=O)n2)c(OC)cc1N1CCC(N2CCN(C)CC2)CC1` [Control Example 1, reference compound], the IC50 is 0.009 µM in data set [4], 0.0399 µM in the data set on Ba/F3 EGFR WT cells and 0.245 µM in data set [5].
